Experimental data: patent US20220306691A1, “THERAPEUTIC PEPTIDES” (COHBAR, INC., priority 2019, published 2022)
Where a SMILES comes first, the peptide text is derived from it. Where no end group is shown, it is not given here. [ ]: non-standard residue; d: D form.

Columns and labels:
[1] = test system: 3T3-L1 adipocytes; assay: Free fatty acid levels in cultured 3T3-L1 adipocytes stimulated with isoproterenol; conditions: for Free Fatty Acid Levels, Percent of Control Value (Percent Isoproterenol Control): test peptides 25 μM, 20-22 hours then 3 hours with isoproterenol (1 nM)
Protocol: Mouse 3T3-L1 adipocytes were seeded at 3,000 cells per well in 96-well plates in Pre-adipocyte Medium (Zen-Bio, Durham, N.C.) and grown to confluence at 37° C. in a humidified atmosphere of 5% CO2/95% air. Two days after confluence, cells were placed in Adipocyte Differentiation Medium (Zen-Bio, Durham, N.C.) and cultured for three additional days at 37° C. in a humidified atmosphere of 5% CO2/95% air. The culture media was then replaced with Adipocyte Maintenance Medium (Zen-Bio) and the cells maintained for an additional 9-12 days at 37° C. in a humidified atmosphere of 5% CO2/95% air with partial medium replacement every other day. Following 12-15 days' differentiation, test peptides were added to a final concentration of 25 μM and incubated for 20-22 hours in Adipocyte Maintenance Medium. After 20-22 hours, isoproterenol (1 nM) was added to all wells except untreated controls and test peptides were replenished. Cells were incubated for a further 3 hours in Assay Buffer (Zen-Bio). Free fatty acid concentrations in the media were determined using a Free Fatty Acid Assay Kit (Zen-Bio) according to the manufacturer's instructions using a plate reader (540 nm). Absorbance values were corrected for untreated background and expressed relative to isoproterenol treated cells. Treatment with isoproterenol (1 nM) alone was used as the free fatty acid level stimulatory control. The relative standard deviation of the isoproterenol control was <10%.

[2] = test system: MDA-MB-231 cells; assay: Caspase 3/7 activity (Caspase-Glo 3/7) in MDA-MB-231 cells; assay type: cell-based, human; conditions: test peptides at 10 μM, 18 hours, relative to DMSO control
Protocol: The effect of the peptides on cell death/survival can be assessed using a caspase-3 assay. Peptides were dissolved with DMSO at 10 mM stock. […] Staurosporine (Selleckchem) was dissolved with DMSO at 1 mM stock. Caspase-Glo 3/7 Assay Reagent was purchased from Promega (Madison, Wis.). MDA-MB-231 human breast cancer cell line was purchased from American Type Culture Collection (Manassas, Va.). MDA-MB-231 cells were grown in DMEM Medium supplemented with 10% FBS. 100 μg/ml penicillin and 100 μg/ml streptomycin were added to the culture medium. […] 25 μl of Caspase-Glo 3/7 Assay Reagent was added to each well and incubated at 37° C., 5% CO2 for 1 hour. Luminescence for each sample well on the plate was measured by Envision 2104 Multilabel Reader (PerkinElmer, Santa Clara, Calif.). Activity was calculated relative to DMSO control.

[3] = test system: MCF-7 cells; assay: Cell viability, MTS assay in MCF-7 cells; conditions: for MTS Assay (cell viability), Percent of Control Activity: human, 72 hours, 10 µM
Protocol: Peptides and reference compound staurosporine (Selleckchem) were dissolved with DMSO at 10 mM stock. CellTiter 96® AQueous One Solution Reagent (MTS assay reagent) was purchased from Promega (Madison, Wis.). MCF-7 human breast cancer cell line was purchased from American Type Culture Collection (Manassas, Va.). MCF-7 cells were grown in EMEM Medium supplemented with 10% FBS and 0.01 mg/ml human recombinant insulin. 100 μg/ml penicillin and 100 μg/ml streptomycin were added to the culture medium. […] 5 μl of CellTiter 96® AQueous One Solution Reagent (MTS assay reagent) was added to each well and incubated at 37° C., 5% CO2 for 5 hours. Absorbance at 492 nm was recorded by Envision 2104 Multilabel Reader. Treatment with DMSO alone was used as the cell viability activity control.

[4] = test system: MDA-MB-231 cells; assay: Cell viability, MTS assay in MDA-MB-231 cells; assay type: cell-based, human; conditions: for MTS Assay (cell viability), Percent of Control Activity: human, 72 hours
Protocol: Test compounds and reference compound staurosporine (Selleckchem) were all dissolved with DMSO at 10 mM stock. […] Activity was calculated relative to DMSO control. […] Cell viability was 3% of the DMSO control value for Staurosporine (10 uM).

**Q.** With 3 (LACFRCEIVVGSWCWSLS) [compound 3] as the molecule, how does the “Free Fatty Acid Levels, Percent of Control Value (Percent Isoproterenol Control)” value (from here on “Free Fatty Acid Levels, Percent”) [1] read?
**A.** 109%

**Q.** With “4 (ACFRCEIVVGSWCWSLS; not fully specified; cysteine pairing not given here) [compound 4]” as the molecule, how does the “Free Fatty Acid Levels, Percent” value [1] read?
**A.** 116%

**Q.** Which “Free Fatty Acid Levels, Percent” value [1] does the source give for “5 ([dA]CFRCEIVVGSWCWSLS; cysteine pairing not given here) [compound 5]” here?
**A.** 113%

**Q.** For “8 (NIVVGKRLIIKVDATMDFT; not fully specified) [compound 8]”, which “Free Fatty Acid Levels, Percent” value [1] is on record?
**A.** 81%

**Q.** Which “Free Fatty Acid Levels, Percent” value [1] does the source give for 9 (NIVVGKRLIIKVD[dA]TMDFT) [compound 9] here?
**A.** 103%

**Q.** Which “Free Fatty Acid Levels, Percent” value [1] does the source give for “10 (NIVV[dA]KRLIIKVDATMDFT) [compound 10]” here?
**A.** 91%

**Q.** Which “Free Fatty Acid Levels, Percent” value [1] does the source give for 13 (WWVSEPHCVVVNM) [compound 13] here?
**A.** 109%

**Q.** How did the “Free Fatty Acid Levels, Percent” value [1] turn out when 14 (WWVSEPHCVVVN) [compound 14] was run?
**A.** 102%

**Q.** With 15 (WVSEPHCVVVN) [compound 15] as the molecule, how does the “Free Fatty Acid Levels, Percent” value [1] read?
**A.** 97%

**Q.** How did the “Free Fatty Acid Levels, Percent” value [1] turn out when 18 (VHHRILTVIYKLRPKH) [compound 18] was run?
**A.** 75%

**Q.** How did the “Free Fatty Acid Levels, Percent” value [1] turn out when 19 (HHRILTVIYKLRPKH) [compound 19] was run?
**A.** 78%

**Q.** How did the “Free Fatty Acid Levels, Percent” value [1] turn out when 20 (HRILTVIYKLRP[dA]H) [compound 20] was run?
**A.** 27%

**Q.** Which “Free Fatty Acid Levels, Percent” value [1] does the source give for 23 (VITFIWSCTKIFGA) [compound 23] here?
**A.** 128%

**Q.** Which “Free Fatty Acid Levels, Percent” value [1] does the source give for 24 (VITFIWSCTKIFG) [compound 24] here?
**A.** 90%

**Q.** With 25 (VITFIWSCTKIF) [compound 25] as the molecule, how does the “Free Fatty Acid Levels, Percent” value [1] read?
**A.** 115%

**Q.** How did the “Caspase 3/7 Activity, Percent of Control Activity” value (“Caspase 3/7 Activity, Percent” below) [2] turn out when `CC[C@H](C)[C@H](NC(=O)[C@H](CCC(=O)O)NC(=O)[C@H](CS)NC(=O)[C@H](CCCNC(=N)N)NC(=O)[C@H](Cc1ccccc1)NC(=O)[C@H](CS)NC(=O)[C@H](C)NC(=O)[C@H](CC(C)C)NC(=O)[C@@H](N)CCSC)C(=O)N[C@H](C(=O)N[C@H](C(=O)NCC(=O)N[C@@H](CO)C(=O)N[C@@H](Cc1c[nH]c2ccccc12)C(=O)N[C@@H](CS)C(=O)N[C@@H](Cc1c[nH]c2ccccc12)C(=O)N[C@@H](CO)C(=O)N[C@@H](CC(C)C)C(=O)N[C@@H](CO)C(=O)O)C(C)C)C(C)C` [compound 2] (H-MLACFRCEIVVGSWCWSLS-OH; N-terminus and C-terminus assumed) was run?
**A.** 95%

**Q.** And the “MTS Assay (cell viability), Percent of Control Activity” value (“MTS Assay (cell viability), Percent” for short) [3]?
**A.** 55%

**Q.** What about the “MTS Assay (cell viability), Percent” value [4] of the same molecule?
**A.** 78%

**Q.** What about the “Free Fatty Acid Levels, Percent” value [1] of the same molecule?
**A.** 114%

**Q.** Which “Cell viability, % of the background corrected DMSO control value” ([3]; MCF-7 cells, staurosporine 10 uM, positive control) does the source give for `CN[C@@H]1C[C@H]2O[C@@](C)([C@@H]1OC)n1c3ccccc3c3c4c(c5c6ccccc6n2c5c31)C(=O)NC4` [staurosporine, reference compound] here?
**A.** < 5%

**Q.** And the “Cell viability, % of the DMSO control value” ([4]; MDA-MB-231 cells, Staurosporine 10 uM, positive control)?
**A.** 3%

**Q.** With Insulin [reference compound] as the molecule, how does the “Free fatty acid levels, % of the isoproterenol control value” ([1]; insulin 100 nM, positive control) read?
**A.** < 5%

**Q.** Which “Caspase 3/7 Activity, Percent” value [2] does the source give for MNIVVGKRLIIKVDATMDFT [compound 7] here?
**A.** 73%

**Q.** And the “MTS Assay (cell viability), Percent” value [3]?
**A.** 59%

**Q.** And the “MTS Assay (cell viability), Percent” value [4]?
**A.** 75%

**Q.** And the “Free Fatty Acid Levels, Percent” value [1]?
**A.** 94%

**Q.** With MVHHRILTVIYKLRPKH [compound 17] as the molecule, how does the “Caspase 3/7 Activity, Percent” value [2] read?
**A.** 74%

**Q.** What about the “MTS Assay (cell viability), Percent” value [3] of the same molecule?
**A.** 60%

**Q.** What about the “MTS Assay (cell viability), Percent” value [4] of the same molecule?
**A.** 82%

**Q.** What about the “Free Fatty Acid Levels, Percent” value [1] of the same molecule?
**A.** 88%

**Q.** Which results are given for MVITFIWSCTKIFGA [compound 22]?
**A.** Caspase 3/7 Activity, Percent of Control Activity [2]: 69%; MTS Assay (cell viability), Percent of Control Activity [3]: 58%; MTS Assay (cell viability), Percent of Control Activity [4]: 81%; Free Fatty Acid Levels, Percent of Control Value (Percent Isoproterenol Control) [1]: 133%

**Q.** What does the source list for MWWVSEPHCVVVNM [compound 12]?
**A.** Caspase 3/7 Activity, Percent of Control Activity [2]: 56%; MTS Assay (cell viability), Percent of Control Activity [3]: 63%; MTS Assay (cell viability), Percent of Control Activity [4]: 78%; Free Fatty Acid Levels, Percent of Control Value (Percent Isoproterenol Control) [1]: 112%
